According to patent EP0306300B1, “Pyrrolo(1,2-a)imidazole and imidazo(1,2-a)pyridine derivatives and their use as 5-lipoxygenase pathway inhibitors” (SMITHKLINE BEECHAM CORPORATION, priority 1987, dated 1989):

Key:
cynomolgus monkeys [1] = experiment: CNS activity / oral toxicity in cynomolgus monkeys; conditions: cynomolgus monkey, in vivo
Description: Additional monkeys tolerated repeated doses of 45 mg/kg or 30 mg/kg and one animal tolerated an escalating dose schedule of 30-90-120 mg/kg.
The two monkeys administered 400 mg/kg were repeatedly administered this dose for 7 consecutive days; each animal experienced emesis within 1 to 5 hours of dosing after the 1st, 3rd and 4th doses, whereas only the female experienced emesis after the 5th, 6th and 7th doses. A complete necropsy, serum clinical chemistry, hematology and histological examination was completed on both monkeys.

cynomolgus monkeys [2] = experiment: CNS activity / oral toxicity in cynomolgus monkeys; assay type: in vivo
[3] = Cytochrome P-450 inhibition (ethoxycoumarin-O-deethylase activity, phenobarbital-induced microsomes); conditions: rat
[4] = Log D determination by high pressure liquid chromatography; assay type: physicochemical; conditions: hplc ods, mobile phase MeOH:H2O, pH 7.4, read-out: (Log D) (Lipophilicity)
Description: The procedure used to determine the log D's listed on Table VI was as follows. A 20 »l sample was injected into a Shandon Hypersil ODS, 5» (100 mm x 4.6 mm ID) column and was eluted using a mobile phase of […] MeOH:H₂O (The aqueous portion was .01 M in KH₂PO₄ and adjusted to pH 7.4 with KOH after mixing the MeOH), at a flow rate of 2 ml per minute. Eluting peaks were detected by UV absorbance at […]. All samples were made up at 0.1 mg/ml. (Retentions were identical at 0.01 mg/ml.)
The data was analyzed by determining the regression line corresponding to the log k′ vs. literature log P of the reference standards.
The reference standards and their literature log P's included NaNO₂, 0.0; acetanalide, 1.16; acetophenone, 1.66; anisole, 2.08; chlorobenzene, 2.84; benzophenone, 3.18; anthracene, 4.45; and pentachlorobenzene, 5.12.

[5] = test system: arachidonic acid-induced edema in mice; experiment: Arachidonic acid-induced mouse ear inflammation (ear swelling); assay type: in vivo, male Balb/c mice; conditions: mouse, po; read-out: AAEE(MOUSE ED50 mg/kg (po))
Description: In the tests used to determine activity as 5-lipoxygenase pathway inhibitors, male Balb/c mice (20-28 g), were used. All mice were obtained from Charles River Breeding Laboratories, Kingston, N.Y. Within a single experiment, mice were age matched.
Reagents were employed as follows: Compounds of Formula (I) were each used as the free base. The compounds were homogenized in 0.5% tragacanth. Compounds were administered by […] at the indicated dose in a final volume of 10 ml/kg.
Arachidonic acid in acetone (2 mg/20 »l) was applied to the inner surface of the left ear. The thickness of both ears was then measured with a dial micrometer one hour after treatment, and the data were expressed as the change in thickness (10⁻³ cm) between treated and untreated ears.
Test compounds were given orally in acid/saline at the times indicated in the text prior to the topical application of arachidonic acid.
Dermatol., 82, 367-371 (1984)].

[6] = cynomolgus monkey, in vivo, po, 60 mg/kg

SMILES: Fc1ccc(-c2nc3n(c2-c2ccncc2)CCS3)cc1 [Compound A, 5-(4-pyridyl)-6-(4-fluorophenyl)-2,3-dihydroimidazo[2,1-b]thiazole]
- Adverse CNS activity (cynomolgus monkeys [1]): +++
- time of death after dosing (cynomolgus monkeys [2]; cynomolgus monkey, in vivo, 90 mg/kg): 1 to 5 h
- clinical effects (cynomolgus monkeys [2]; oral 90 mg/kg/day, two consecutive days, 1 female, 1 male, 90 mg/kg/day): caused convulsions and death
- IC50 ([3]; liver microsomes): 600 nM
- IC50 ([3]; microsomes): 900 nM
- chromatographic logD [4]: 2.19
- ED50 [5]: 27 mg/kg

SMILES: COc1ccc(-c2nc3n(c2-c2ccncc2)CCC3)cc1 [Compound C, 2-(4-methoxyphenyl)-3-(4-pyridyl)-6,7-dihydro-[5H]-pyrrolo[1,2-a]imidazole]
- Adverse CNS activity (cynomolgus monkeys [1]): +++
- clinical effects (cynomolgus monkeys [2]; [6]): sedation, loss of consciousness and death of one (male)
- time of death after dosing (cynomolgus monkeys [2]; [6]): ≤ 1 h
- clinical effects (cynomolgus monkeys [2]; cynomolgus monkey, in vivo, po, 90 mg/kg): death of both animals
- clinical effects (cynomolgus monkeys [2]; single oral dose of 90 mg/kg, 1 female, 1 male, 90 mg/kg): caused convulsions and death
- IC50 ([3]; liver microsomes): 21400 nM
- chromatographic logD [4]: 2.14
- ED50 [5]: 28 mg/kg
